Source: patent US4954483A, “Carboxylic acid ester derivatives or deglucoteicoplanin” (Gruppo Lepetit, S.p.A., priority 1984, dated 1990)

Assays:
[1] = Solubility characteristics
[2] = Potentiometric titration in methylcellosolve/water 4:1 (pKa, pH1/2); format: physicochemical; details: methylcellosolve/water 4:1 (v/v), excess 0.01 M HCl, titrated with 0.01 M NaOH
Description: ^(c) the samples are dissolved in methylcellosolve ®/water 4:1
(v/v), an excess of 0.01 M hydrogen chloride in the same mixture is added
thereto and the resulting solution is titrated with 0.01 M NaOH in the […]

S. pneumoniae UC 41 = test: MIC, standard agar-dilution test; format: cell-based; details: inoculum about 10^4 CFU/ml
Description: (§1) Isosensitest broth (Oxoid) and Todd-Hewitt broth (Difco) are used for growing staphylococci and streptococci, respectively. Broth cultures are diluted so that the final inoculum is about 10^4 colony forming units/ml (CFU/ml).

S. faecalis ATCC 7080 = test: MIC, standard agar-dilution test; format: cell-based; details: inoculum about 10^4 CFU/ml
Description: as §1

[3] = test system: S. pyogenes C 203 SKF 13400; test: MIC, standard agar-dilution test; format: cell-based; details: Todd-Hewitt broth, inoculum about 10^4 CFU/ml
Description: as §1

E. coli SKF 12140 = test: MIC, standard agar-dilution test; format: cell-based; details: inoculum about 10^4 CFU/ml
Description: as §1

S. aureus ATCC 6538 = test: MIC, standard agar-dilution test; format: cell-based; details: inoculum about 10^4 CFU/ml, 18-24 h at 37° C.
Description: as §1

[4] = test system: S. epidermidis ATCC 12228; test: MIC, standard agar-dilution test; format: cell-based; details: inoculum about 10^4 CFU/ml
Description: as §1

S. aureus TOUR = test: MIC, standard agar-dilution test; format: cell-based
From the text: Isosensitest broth (Oxoid) and Todd-Hewitt broth (Difco) are used for growing staphylococci and streptococci, respectively. […]

[5] = S. aureus TOUR + 30% bovine serum

With `CC(=O)N[C@@H]1[C@@H](O[C@H]2c3ccc(c(Cl)c3)Oc3cc4cc(c3O)Oc3ccc(cc3Cl)C[C@@H]3NC(=O)[C@@H](N)c5ccc(O)c(c5)Oc5cc(O)cc(c5)[C@@H](NC3=O)C(=O)N[C@@H]4C(=O)N[C@@H]3C(=O)N[C@H]2C(=O)N[C@@H](C(=O)O)c2cc(O)cc(O)c2-c2cc3ccc2O)O[C@@H](CO)[C@H](O)[C@H]1O` (stereo in doubt) [Antibiotic L 17046] the “solubility in dimethylformamide, dimethylsulfoxide, propyleneglycol and methylcellosolve” value [1] was “freely soluble”, the solubility in methanol [1] was “slightly soluble” and the solubility in water ([1]; water at pH>8.0) was “freely soluble”.
With `N[C@H]1C(=O)N[C@@H]2Cc3ccc(c(Cl)c3)Oc3cc4cc(c3O)Oc3ccc(cc3Cl)[C@@H](O)[C@@H]3NC(=O)[C@H](NC(=O)[C@@H]4NC(=O)[C@@H](NC2=O)c2cc(O)cc(c2)Oc2cc1ccc2O)c1ccc(O)c(c1)-c1c(O)cc(O)cc1[C@@H](C(=O)O)NC3=O` [Antibiotic L 17392, deglucoteicoplanin] the “solubility in aqueous methanol, ethanol and acetone” value [1] was “soluble”, the “solubility in ethyl alcohol and dimethylformamide” value [1] was “slightly soluble” and the solubility in water ([1]; water at a pH higher than 9) was “soluble”.
In the case of “N-benzyloxycarbonyl deglucoteicoplanin [Example 4]”, the pKa [2] is reported as 5.02.
With “deglucoteicoplanin 4-chloro-butyl ester [Example 9]” the pKa [2] was 6.60.
In the case of “deglucoteicoplanin benzyl ester, hydrochloride [Example 3]”, the MIC (S. pneumoniae UC 41) is reported as 0.2 µg/mL, the MIC (S. faecalis ATCC 7080) is reported as 0.4 µg/mL and the MIC [3] is reported as 0.05 µg/mL. For the same compound, the MIC (E. coli SKF 12140) was 12.5 µg/mL, the MIC (S. aureus ATCC 6538) was 0.4 µg/mL and the MIC [4] was 0.1 µg/mL. For the same compound, the MIC (S. aureus TOUR; S. aureus TOUR (10^3 CFU/ml)) was 0.4 µg/mL, the MIC (S. aureus TOUR; S. aureus TOUR (10^6 CFU/ml)) was 0.4 µg/mL and the MIC (S. aureus TOUR; [5]) was 0.8 µg/mL. It also gave a pKa [2] of 6.67.
Work on “deglucoteicoplanin n-butyl ester, hydrochloride [Example 1]” yielded an MIC (S. pneumoniae UC 41) of 0.1 µg/mL, an MIC (S. faecalis ATCC 7080) of 0.2 µg/mL and an MIC [3] of 0.1 µg/mL. The MIC (E. coli SKF 12140) was 50 µg/mL, the MIC (S. aureus ATCC 6538) was 0.05 µg/mL and the MIC [4] was 0.05 µg/mL. It also gave an MIC (S. aureus TOUR; S. aureus TOUR (10^3 CFU/ml)) of 0.1 µg/mL, an MIC (S. aureus TOUR; S. aureus TOUR (10^6 CFU/ml)) of 0.4 µg/mL and an MIC (S. aureus TOUR; [5]) of 0.4 µg/mL. For the same compound, the pKa [2] was 6.57.
In the case of “deglucoteicoplanin n-octyl ester, hydrochloride [Example 2]”, the MIC (S. pneumoniae UC 41) is reported as 0.05 µg/mL, the MIC (S. faecalis ATCC 7080) is reported as 0.4 µg/mL and the MIC [3] is reported as 0.05 µg/mL. The MIC (E. coli SKF 12140) was greater than 100 µg/mL, the MIC (S. aureus ATCC 6538) was 0.2 µg/mL and the MIC [4] was 0.1 µg/mL. The MIC (S. aureus TOUR; S. aureus TOUR (10^3 CFU/ml)) was 0.2 µg/mL, the MIC (S. aureus TOUR; S. aureus TOUR (10^6 CFU/ml)) was 0.8 µg/mL and the MIC (S. aureus TOUR; [5]) was 0.8 µg/mL. It also gave a pKa [2] of 6.82.
